Laboratory results from patent publication US12076304B2, “Compositions comprising 15-HEPE and methods of treating or preventing hematologic disorders, and/or related diseases” (priority 2020, dated 2024).
“Also recorded” adds a separate entry of the source.

Experiments:
[1] = system: NAFLD patients; experiment: Phase IIa study in NAFLD patients: hepatic fat by CAP; type: in vivo, human; conditions: 16 weeks
Experimental: (§1) The study was planned to include 96 evaluable patients with 32 patients randomized per treatment group.
Liver stiffness and CAP: Liver stiffness and CAP were assessed using transient elastography (e.g., FibroScan® 502 Touch model or equivalent). Patients were fasted and scanned at the same time of the day, if possible, for baseline (Week 0) and Visit 10 (Week 16). For this assessment the following conditions were met: patients were lying in dorsal decubitus position with the right arm in maximal abduction behind the head, in a similar position to that used for liver biopsy (LB); the tip of the transducer was placed on the skin between the ribs over the right lobe of the liver (the physician took the measurements with the probe placed in the intercostal space); during the FibroScan® examination the choice of M+ or XL+ probe was determined by the Automatic Probe Selection tool (APS) (If, the APS tool advises to use the “XL+probe” or “switch” continuously between “M+ and XL+ probe”, only the XL+ probe was used); and the operator, assisted by an ultrasonic time motion image, located a portion of the liver which is free of large vascular structures (the depth of measurement was between 35-75 mm for the XL+ probe and 25-65 mm for the M+ probe and the explored volume will be 3 cm^3). […] The final stiffness and CAP values was recorded as median values of valid measurements.

[2] = system: α-SMA mRNA; experiment: BDL mice liver quantitative RT-PCR, Alpha-SMA; type: in vivo; conditions: for Alpha-SMA relative mRNA expression level: BDL mice liver, normalized to 36B4, Sham 1.00, mean ± SD
Experimental: (§2) Quantitative RT-PCR: Total ribonucleic acid (RNA) was extracted from liver samples using RNAiso (Takara Bio, Japan) according to the manufacturer's instructions. One μg of RNA was reverse-transcribed using a reaction mixture containing 4.4 mM magnesium chloride (MgCl2) (F. Hoffmann-La Roche, Switzerland), 40 U RNase inhibitor (Toyobo, Japan), 0.5 mM dNTP (Promega, USA), 6.28 μM random hexamer (Promega), 5× first strand buffer (Promega), 10 mM dithiothreitol (Invitrogen, USA) and 200 U MMLV-RT (Invitrogen) in a final volume of 20 μL. The reaction was carried out for 1 hour at 37° C., followed by 5 minutes at 99° C. Real-time PCR was performed using real-time PCR DICE and TB Green™ Premix Ex Taq™ II (Takara Bio). To calculate the relative mRNA expression level, the expression of each gene (α-SMA, TIMP-1, TGF-β and Collagen Type 1) was normalized to that of reference gene 36B4 (gene symbol: Rplp0). Information regarding the PCR-primer sets and the plate layout are described in Tables 8 and 9.

[3] = system: cholestasis induced by BDL; experiment: BDL mice: Sirius red staining of liver sections, fibrosis area; type: in vivo; conditions: for Sirius red-positive area: BDL mice liver, Day 14, mean ± SD, n = 8; for fibrosis area compared with the Vehicle group: BDL mice
Experimental: […]: To visualize collagen deposition, Bouin's fixed liver sections were stained using picro-Sirius red solution (Waldeck, Germany). For quantitative analysis of fibrosis area, bright field images of Sirius red-stained sections were captured using a digital camera (DFC295; Leica, Germany) at 100-fold magnification, and the positive areas in 5 fields/section were measured using ImageJ software (National Institute of Health, USA).

[4] = system: TGF-β mRNA; experiment: BDL mice liver quantitative RT-PCR, TGF-β; type: in vivo; conditions: for TGF-β relative mRNA expression level: BDL mice liver, normalized to 36B4, Sham 1.00, mean ± SD
Experimental: as §2

[5] = system: TIMP-1 mRNA; experiment: BDL mice liver quantitative RT-PCR, TIMP-1; type: in vivo; conditions: for TIMP-1 relative mRNA expression level: BDL mice liver, normalized to 36B4, Sham 1.00, mean ± SD
Experimental: as §2

[6] = system: Collagen Type 1 mRNA; experiment: BDL mice liver quantitative RT-PCR, Collagen Type 1; type: in vivo; conditions: for Collagen Type 1 relative mRNA expression level: BDL mice liver, normalized to 36B4, Sham 1.00, mean ± SD
Experimental: as §2

[7] = system: NAFLD patients; experiment: Phase IIa study in NAFLD patients: metabolic and glycemic parameters; type: in vivo, human
Experimental: as §1
HOMA-IR/Adipo-IR: HOMA-IR/Adipo-IR levels are a method of measuring insulin resistance. HOMA-IR is calculated by multiplying fasting plasma insulin (FPI) by fasting plasma glucose (FPG), then dividing by the constant 405. Adipo-IR is calculated by multiplying fasting non-esterified fatty acids (NEFA)×fasting insulin. Blood samples were taken to assess HOMA-IR and Adipo-IR at Visit 2/Baseline, Visit 3/Week 2, Visit 4/Week 4, Visit 6/Week 8, Visit 8/Week 12, Visit 10/Week16 and Follow up Visit 11/Week 20. All subjects were required to have been fasted for a minimum of 8 hours prior to blood sampling. If subjects had not fasted for a minimum of 8 hours, the duration of fasting time was recorded, and subjects encouraged to fast appropriately for the next clinical visit.
Exploratory analysis: The exploratory analysis included analysis of lipid and metabolic parameters including total cholesterol, triglycerides, very low-density lipoprotein cholesterol (VLDL-C), low density lipoprotein cholesterol (LDL-C), high density lipoprotein cholesterol (HDL-C), non-high-density lipoprotein cholesterol (non-HDL-C), remnant-like particle cholesterol (RLP-C), fasting glucose, insulin, free fatty acids and hemoglobin A1C (HbA1C). Additional exploratory analysis included high throughput lipidomics and proteomics.

[8] = BDL mice, 500 mg/kg PO QD Day 0-13, 500 mg/kg
[9] = BDL mice, DS102 treatment groups as a whole
[10] = 1 g or 2 g per day, baseline to Week 16 vs placebo

## 15-HEPE [DS102]
[1]
  hepatic fat content as assessed by CAP: reduced
[2]; 50 mg/kg PO QD Day 0-13
  Alpha-SMA relative mRNA expression level: 3.21 ± 1.67
[2]; 250 mg/kg PO QD Day 0-13
  Alpha-SMA relative mRNA expression level: 2.66 ± 1.33
[2]; 500 mg/kg PO QD Day 0-13
  Alpha-SMA relative mRNA expression level: 1.42 ± 0.75
[2]; [8]
  α-SMA mRNA expression level compared with the Vehicle group: tended to decrease; also recorded: trend approaching significance
[2]; [9]
  α-SMA mRNA expression level, Vehicle group vs the DS102 treatment groups: no significant differences
[3]; 50 mg/kg PO QD Day 0-13
  Sirius red-positive area: 1.70 ± 0.63%
  fibrosis area compared with the Vehicle group: no significant difference
[3]; 250 mg/kg PO QD Day 0-13
  Sirius red-positive area: 1.06 ± 0.48%
  fibrosis area compared with the Vehicle group: significant decrease
[3]; 500 mg/kg PO QD Day 0-13
  Sirius red-positive area: 1.42 ± 0.60%
[3]; 500 mg/kg PO QD Day 0-13, 500 mg/kg
  fibrosis area compared with the Vehicle group: tended to decrease; also recorded: trend approaching significance
[4]; 50 mg/kg PO QD Day 0-13
  TGF-β relative mRNA expression level: 1.48 ± 0.48
[4]; 250 mg/kg PO QD Day 0-13
  TGF-β relative mRNA expression level: 1.50 ± 0.44
[4]; 500 mg/kg PO QD Day 0-13
  TGF-β relative mRNA expression level: 1.00 ± 0.23
[4]; BDL mice, 500 mg/kg PO QD Day 0-13
  TGF-β mRNA expression level compared with the Vehicle group: significant decrease
[4]; [9]
  TGF-β mRNA expression level, Vehicle group vs the DS102 treatment groups: no significant differences
[5]; 50 mg/kg PO QD Day 0-13
  TIMP-1 relative mRNA expression level: 43.82 ± 26.19
[5]; 250 mg/kg PO QD Day 0-13
  TIMP-1 relative mRNA expression level: 30.65 ± 16.80
[5]; 500 mg/kg PO QD Day 0-13
  TIMP-1 relative mRNA expression level: 16.09 ± 10.16
[5]; [8]
  TIMP-1 mRNA expression level compared with the Vehicle group: tended to decrease; also recorded: trend approaching significance
[5]; [9]
  TIMP-1 mRNA expression level, Vehicle group vs the DS102 treatment groups: no significant differences
[6]; 50 mg/kg PO QD Day 0-13
  Collagen Type 1 relative mRNA expression level: 4.94 ± 2.76
[6]; 250 mg/kg PO QD Day 0-13
  Collagen Type 1 relative mRNA expression level: 4.21 ± 1.90
[6]; 500 mg/kg PO QD Day 0-13
  Collagen Type 1 relative mRNA expression level: 2.51 ± 1.39
[6]; [8]
  Collagen Type 1 mRNA expression level compared with the Vehicle group: tended to decrease; also recorded: trend approaching significance
[6]; [9]
  Collagen Type 1 mRNA expression level, Vehicle group vs the DS102 treatment groups: no significant differences
[7]; 1 g or 2 g per day, 16 weeks
  insulin sensitivity and glycemic control: improvement
  markers of metabolic overload: statistically significant reduction
[7]; 1 g or 2 g per day, Week 16
  insulin resistance indices (HOMA-IR and adipo-IR levels): improvement
[7]; [10]
  HbA1c levels / glycemic control: clinically significant improvements
  insulin, glucose, and free fatty acid levels: reduction
[7]; 2 g per day, Week 16, Per Protocol Set
  insulin resistance indices (HOMA-IR and adipo-IR levels): significant improvements
